According to patent publication US20120045393A1 (priority 2009, published 2012):
Non-standard residues stand in square brackets, D forms with d. Residues, ends and D or L forms follow the SMILES beside them. *: point of attachment. DOTA = O=C(O)CN1CCN(CC(=O)O)CCN(CC(=O)*)CCN(CC(=O)O)CC1; Bpa = N[C@@H](Cc1ccc(C(=O)c2ccccc2)cc1)C(=O)O; d2Nal = N[C@H](Cc1ccc2ccccc2c1)C(=O)O; Nicotinoyl = O=C(c1cccnc1)*; azaGly = NNC(=O)O; Sar = CNCC(=O)O

tested on: LHRH binding sites on human ovarian cancer cells (EFO-27); details: not given
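Also: Cell-associated radioactivity on confluent EFO-27 monolayers in 96-well plates, measured by microplate scintillation counting.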

Row | EC50 | Structure (SMILES)
1 | 0.41 µM | N=C(N)NCCC[C@H](NC(=O)[C@@H](Cc1ccc2ccccc2c1)NC(=O)[C@@H](N)CCCCNC(=O)CN1CCN(CC(=O)O)CCN(CC(=O)O)CCN(CC(=O)O)CC1)C(=O)N[C@@H](Cc1c[nH]c2ccccc12)C(=O)N[C@@H](CO)C(=O)N[C@@H](Cc1c[nH]cn1)C(=O)N[C@H](CCCNC(=N)N)C(=O)N[C@@H](Cc1c[nH]c2ccccc12)C(=O)N[C@@H](Cc1ccc(C(=O)c2ccccc2)cc1)C(=O)N1CCC[C@H]1C(=O)NNC(N)=O [BRU 3098]
2 | 4.31 µM | CN(CC(=O)N[C@@H](Cc1c[nH]cn1)C(=O)N[C@@H](Cc1c[nH]c2ccccc12)C(=O)N[C@@H](CO)C(=O)N[C@@H](Cc1c[nH]cn1)C(=O)N[C@H](CCCNC(=N)N)C(=O)N[C@@H](Cc1c[nH]c2ccccc12)C(=O)NC1(C(=O)N2CCC[C@H]2C(=O)NNC(N)=O)Cc2ccccc2C1)C(=O)CN1CCN(CC(=O)O)CCN(CC(=O)O)CCN(CC(=O)O)CC1 [BRU-2764]
3 | 0.28 µM | N=C(N)NCCC[C@H](NC(=O)[C@@H](Cc1ccc2ccccc2c1)NC(=O)CN1CCN(CC(=O)O)CCN(CC(=O)O)CCN(CC(=O)O)CC1)C(=O)N[C@@H](Cc1c[nH]c2ccccc12)C(=O)N[C@@H](CO)C(=O)N[C@@H](Cc1c[nH]cn1)C(=O)N[C@H](CCCNC(=N)N)C(=O)N[C@@H](Cc1c[nH]c2ccccc12)C(=O)N[C@@H](Cc1ccc(C(=O)c2ccccc2)cc1)C(=O)N1C[C@H](O)C[C@H]1C(=O)NNC(N)=O [compound 2952]
4 | 1.13 µM | CC(C)C[C@H](NC(=O)[C@H](Cc1c[nH]c2ccccc12)NC(=O)[C@H](CCCNC(=N)N)NC(=O)[C@@H](Cc1ccc2ccccc2c1)NC(=O)CN1CCN(CC(=O)O)CCN(CC(=O)O)CCN(CC(=O)O)CC1)C(=O)N[C@@H](Cc1c[nH]cn1)C(=O)N[C@H](CCCNC(=N)N)C(=O)N[C@@H](Cc1c[nH]c2ccccc12)C(=O)N[C@@H](Cc1ccc(C(=O)c2ccccc2)cc1)C(=O)N1CCC[C@H]1C(=O)NNC(N)=O [compound 3113] ({DOTA}-[d2Nal]RWLH[dR]W[Bpa]P[azaGly]-NH2)
5 | 2.14 µM | CN(CC(=O)N[C@@H](Cc1c[nH]cn1)C(=O)N[C@@H](Cc1c[nH]c2ccccc12)C(=O)N[C@@H](CO)C(=O)N[C@@H](Cc1c[nH]cn1)C(=O)N[C@H](CCCNC(=N)N)C(=O)N[C@@H](Cc1c[nH]c2ccccc12)C(=O)N[C@@H](Cc1ccc(-c2ccccc2)cc1)C(=O)N1CCC[C@H]1C(=O)NNC(N)=O)C(=O)CN1CCN(CC(=O)O)CCN(CC(=O)O)CCN(CC(=O)O)CC1 [BRU-2625]
6 | 10 µM | CN(CC(=O)N[C@@H](Cc1c[nH]cn1)C(=O)N[C@@H](Cc1c[nH]c2ccccc12)C(=O)N[C@@H](CO)C(=O)N[C@@H](Cc1c[nH]cn1)C(=O)N[C@H](CCCNC(=N)N)C(=O)N[C@@H](Cc1c[nH]c2ccccc12)C(=O)N[C@@H](Cc1cscn1)C(=O)N1CCC[C@H]1C(=O)NNC(N)=O)C(=O)CN1CCN(CC(=O)O)CCN(CC(=O)O)CCN(CC(=O)O)CC1 [BRU-2742]

same assay, conditions: EFO-27 cells, competition with [125I-Tyr8]BRU-2477, 90 min

Row | Structure (SMILES) | EC50
7 | CN(CC(=O)N[C@@H](Cc1c[nH]cn1)C(=O)N[C@@H](Cc1c[nH]c2ccccc12)C(=O)N[C@@H](CO)C(=O)N[C@@H](Cc1c[nH]cn1)C(=O)N[C@H](CCCCNC(=O)c1cccnc1)C(=O)N[C@@H](Cc1c[nH]c2ccccc12)C(=O)N[C@@H](Cc1ccc(C(=O)c2ccccc2)cc1)C(=O)N1CCC[C@H]1C(=O)NNC(N)=O)C(=O)CN1CCN(CC(=O)O)CCN(CC(=O)O)CCN(CC(=O)O)CC1 [compound 2671] ({DOTA}-[Sar]HWSH[dK](Nicotinoyl)W[Bpa]P[azaGly]-NH2) | 7.2 µM
8 | N=C(N)NCCC[C@H](NC(=O)[C@@H](Cc1ccc2ccccc2c1)NC(=O)CN1CCN(CC(=O)O)CCN(CC(=O)O)CCN(CC(=O)O)CC1)C(=O)N[C@@H](Cc1c[nH]c2ccccc12)C(=O)N[C@@H](CO)C(=O)N[C@@H](Cc1c[nH]cn1)C(=O)N[C@H](CCCNC(=N)N)C(=O)N[C@@H](Cc1c[nH]c2ccccc12)C(=O)N[C@@H](Cc1ccc(C(=O)c2ccccc2)cc1)C(=O)N1CCC[C@H]1C(=O)NCC(=O)N[C@@H](CCC(N)=O)C(N)=O [compound 2971] ({DOTA}-[d2Nal]RWSH[dR]W[Bpa]PGQ-NH2) | 0.49 µM
9 | N=C(N)NCCC[C@H](NC(=O)[C@@H](Cc1ccc2ccccc2c1)NC(=O)CN1CCN(CC(=O)O)CCN(CC(=O)O)CCN(CC(=O)O)CC1)C(=O)N[C@@H](Cc1c[nH]c2ccccc12)C(=O)N[C@@H](CO)C(=O)N[C@@H](Cc1c[nH]cn1)C(=O)N[C@H](CCCNC(=N)N)C(=O)N[C@@H](Cc1c[nH]c2ccccc12)C(=O)N[C@@H](Cc1ccc(C(=O)c2ccccc2)cc1)C(=O)N1CCC[C@H]1C(=O)NCC(=O)NCc1ccccc1 [compound 2988] | 0.65 µM

same assay, conditions: Table 5: modifications of amino acids at positions 1 and 2; in vitro binding on EFO-27 cells

Row | Structure (SMILES) | EC50
10 | CN(CC(=O)N[C@@H](CCCNC(=N)N)C(=O)N[C@@H](Cc1c[nH]c2ccccc12)C(=O)N[C@@H](CO)C(=O)N[C@@H](Cc1c[nH]cn1)C(=O)N[C@H](CCCNC(=N)N)C(=O)N[C@@H](Cc1c[nH]c2ccccc12)C(=O)N[C@@H](Cc1ccc(C(=O)c2ccccc2)cc1)C(=O)N1CCC[C@H]1C(=O)NNC(N)=O)C(=O)CN1CCN(CC(=O)O)CCN(CC(=O)O)CCN(CC(=O)O)CC1 [BRU-2817] | 1.7 µM
11 | N=C(N)NCCC[C@@H](NC(=O)[C@H](Cc1c[nH]cn1)NC(=O)[C@H](CO)NC(=O)[C@H](Cc1c[nH]c2ccccc12)NC(=O)[C@H](Cc1c[nH]cn1)NC(=O)[C@@H]1CCCN1C(=O)CNC(=O)CN1CCN(CC(=O)O)CCN(CC(=O)O)CCN(CC(=O)O)CC1)C(=O)N[C@@H](Cc1c[nH]c2ccccc12)C(=O)N[C@@H](Cc1ccc(C(=O)c2ccccc2)cc1)C(=O)N1CCC[C@H]1C(=O)NNC(N)=O [BRU-2667] ({DOTA}-GPHWSH[dR]W[Bpa]P[azaGly]-NH2) | 7.29 µM
12 | N=C(N)NCCC[C@@H](NC(=O)[C@H](Cc1c[nH]cn1)NC(=O)[C@H](CO)NC(=O)[C@H](Cc1c[nH]c2ccccc12)NC(=O)[C@H](Cc1c[nH]cn1)NC(=O)[C@@H]1CSCN1C(=O)CNC(=O)CN1CCN(CC(=O)O)CCN(CC(=O)O)CCN(CC(=O)O)CC1)C(=O)N[C@@H](Cc1c[nH]c2ccccc12)C(=O)N[C@@H](Cc1ccc(C(=O)c2ccccc2)cc1)C(=O)N1CCC[C@H]1C(=O)NNC(N)=O [BRU-2728] | 3.15 µM
13 | CN(CC(=O)N[C@@H](Cc1cn(C)cn1)C(=O)N[C@@H](Cc1c[nH]c2ccccc12)C(=O)N[C@@H](CO)C(=O)N[C@@H](Cc1c[nH]cn1)C(=O)N[C@H](CCCNC(=N)N)C(=O)N[C@@H](Cc1c[nH]c2ccccc12)C(=O)N[C@@H](Cc1ccc(C(=O)c2ccccc2)cc1)C(=O)N1CCC[C@H]1C(=O)NNC(N)=O)C(=O)CN1CCN(CC(=O)O)CCN(CC(=O)O)CCN(CC(=O)O)CC1 [BRU-2741] | 2.99 µM
14 | N=C(N)NCCC[C@@H](NC(=O)[C@H](Cc1c[nH]cn1)NC(=O)[C@H](CO)NC(=O)[C@H](Cc1c[nH]c2ccccc12)NC(=O)[C@H](Cc1c[nH]cn1)NC(=O)[C@H](NC(=O)CNC(=O)CN1CCN(CC(=O)O)CCN(CC(=O)O)CCN(CC(=O)O)CC1)c1cccc2ccccc12)C(=O)N[C@@H](Cc1c[nH]c2ccccc12)C(=O)N[C@@H](Cc1ccc(C(=O)c2ccccc2)cc1)C(=O)N1CCC[C@H]1C(=O)NNC(N)=O [BRU-2770] | 2.7 µM

same assay, conditions: ratio of EC50 to BRU-2813 (EC50=0.33 μM)

Row | Structure (SMILES) | binding potency, times lower than BRU-2813
15 | N=C(N)NCCC[C@H](NC(=O)[C@@H](Cc1ccc2ccccc2c1)NC(=O)CN1CCN(CC(=O)O)CCN(CC(=O)O)CCN(CC(=O)O)CC1)C(=O)N[C@@H](Cc1c[nH]c2ccccc12)C(=O)N[C@@H](CO)C(=O)N[C@@H](Cc1c[nH]cn1)C(=O)N[C@H](CCCNC(=N)N)C(=O)N[C@@H](Cc1c[nH]c2ccccc12)C(=O)N[C@@H](Cc1ccc(C(=O)c2ccccc2)cc1)C(=O)N1C[C@H](c2ccccc2)C[C@H]1C(=O)NNC(N)=O [BRU-2953] | 2
